Measured values from ChEMBL document CHEMBL1134804, “Studies leading to the identification of ZD1839 (IRESSA): an orally active, selective epidermal growth factor receptor tyrosine kinase inhibitor targeted to the treatment of cancer” (Bioorg Med Chem Lett, 2001).

Assays:
[1] = test system: KB 3-1; assay: cells; conditions: Homo sapiens
Description: In vitro inhibitory activity against EGF-stimulated proliferation of KB2 cells in culture

[2] = in vivo; conditions: mouse, po, 200 mg/kg
[3] = target: Epidermal growth factor receptor (Homo sapiens, UniProt P00533);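 further: tyrosine kinase inhibition of EGFR isolated from A431 vulval squamous carcinoma cells, measured in vitro with a TKI assay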
Chain of Epidermal growth factor receptor (P00533 whole entry): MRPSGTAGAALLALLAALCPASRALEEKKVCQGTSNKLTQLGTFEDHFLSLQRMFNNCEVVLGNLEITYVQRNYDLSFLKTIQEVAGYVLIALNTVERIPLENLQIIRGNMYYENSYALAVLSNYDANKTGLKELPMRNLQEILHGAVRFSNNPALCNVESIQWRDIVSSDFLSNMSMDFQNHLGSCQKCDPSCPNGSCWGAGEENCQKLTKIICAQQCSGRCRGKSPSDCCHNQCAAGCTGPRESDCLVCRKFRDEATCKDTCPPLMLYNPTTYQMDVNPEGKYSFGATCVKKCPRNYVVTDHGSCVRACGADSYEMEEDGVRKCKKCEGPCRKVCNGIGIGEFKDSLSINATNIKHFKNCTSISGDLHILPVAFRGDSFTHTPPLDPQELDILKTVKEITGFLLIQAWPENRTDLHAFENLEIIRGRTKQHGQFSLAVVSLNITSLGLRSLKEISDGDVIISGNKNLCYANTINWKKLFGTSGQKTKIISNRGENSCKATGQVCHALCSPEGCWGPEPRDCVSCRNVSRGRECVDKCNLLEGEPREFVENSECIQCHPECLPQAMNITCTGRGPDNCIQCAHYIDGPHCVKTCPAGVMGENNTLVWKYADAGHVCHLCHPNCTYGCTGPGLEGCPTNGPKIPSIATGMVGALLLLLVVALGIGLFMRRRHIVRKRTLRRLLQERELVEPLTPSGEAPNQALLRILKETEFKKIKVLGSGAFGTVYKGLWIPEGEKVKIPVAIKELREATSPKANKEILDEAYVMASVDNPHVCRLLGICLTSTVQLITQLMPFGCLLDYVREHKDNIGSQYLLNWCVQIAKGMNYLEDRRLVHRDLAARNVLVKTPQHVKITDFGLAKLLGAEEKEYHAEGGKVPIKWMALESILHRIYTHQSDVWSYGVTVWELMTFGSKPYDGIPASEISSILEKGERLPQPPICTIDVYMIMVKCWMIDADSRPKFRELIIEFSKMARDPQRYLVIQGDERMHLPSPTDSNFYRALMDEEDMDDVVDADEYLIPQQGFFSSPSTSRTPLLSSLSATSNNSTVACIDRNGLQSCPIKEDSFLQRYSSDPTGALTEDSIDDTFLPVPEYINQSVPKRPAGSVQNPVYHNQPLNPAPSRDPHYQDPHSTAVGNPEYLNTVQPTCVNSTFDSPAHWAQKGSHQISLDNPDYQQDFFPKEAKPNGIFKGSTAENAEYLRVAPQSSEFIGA
Description: In vitro inhibitory activity against Epidermal growth factor receptor (EGFR-TK) from A431 vulval squamous carcinoma cells using TKI assay

Structure (SMILES)	IC50 [1] [nM]	concentration at 6 h [2] [µM]	IC50 [3] [nM]
COc1cc2ncnc(Nc3ccc(F)c(Cl)c3)c2cc1OC[C@@H](O)CN1CCOCC1	160	23	95
COc1cc2ncnc(Nc3ccc(F)c(Cl)c3)c2cc1OC[C@H](O)CN1CCOCC1	130	15	67
CCN(CC)CCOc1cc2c(Nc3ccc(F)c(Cl)c3)ncnc2cc1OC	310	2.8	93
COc1cc2ncnc(Nc3ccc(F)c(Cl)c3)c2cc1OCCn1ccnc1		164	
COc1cc2ncnc(Nc3ccc(F)c(Cl)c3)c2cc1OCCCN1CCCC1		8.8	
COc1cc2ncnc(Nc3ccc(F)c(Cl)c3)c2cc1OCC(O)CN(CCO)CCO (stereo not drawn)	850	0.2	5
COc1cc2ncnc(Nc3ccc(F)c(Cl)c3)c2cc1OC		16	
COc1cc2ncnc(Nc3ccc(F)c(Cl)c3)c2cc1OCCNC(C)C	220	0.4	310
CNCC(O)COc1cc2c(Nc3ccc(F)c(Cl)c3)ncnc2cc1OC (stereo not drawn)	220		5
COc1cc2ncnc(Nc3cccc(C)c3)c2cc1OC	50		
COCCNCCOc1cc2c(Nc3ccc(F)c(Cl)c3)ncnc2cc1OC	180	11	8
COc1cc2ncnc(Nc3ccc(F)c(Cl)c3)c2cc1OCCNC(C)(C)C	320	0.1	100

Results, then the compound that gave them:

IC50 [1] [nM]	concentration at 6 h [2] [µM]	IC50 [3] [nM]	Structure (SMILES)
380	156		COc1cc2ncnc(Nc3ccc(F)c(Cl)c3)c2cc1OCCN1CCOCC1
	5.2		COc1cc2ncnc(Nc3ccc(F)c(Cl)c3)c2cc1OCCCN1CCCCC1
350	1.6	8	CNCCOc1cc2c(Nc3ccc(F)c(Cl)c3)ncnc2cc1OC
170	7.2	61	COCCN(CCOC)CCOc1cc2c(Nc3ccc(F)c(Cl)c3)ncnc2cc1OC
90	7.1		COc1cc2ncnc(Nc3ccc(F)c(Cl)c3)c2cc1OCCN1CCN(C)CC1
	5.4		CCN(CC)CCCOc1cc2c(Nc3ccc(F)c(Cl)c3)ncnc2cc1OC
910	0.1	69	COc1cc2ncnc(Nc3ccc(F)c(Cl)c3)c2cc1OCCNC(C)(CO)CO
	16		COc1cc2ncnc(Nc3ccc(F)c(Cl)c3)c2cc1OCCN1CCCCC1
	0.1		COc1cc2ncnc(Nc3ccc(F)c(Cl)c3)c2cc1OCC(O)CN (stereo not drawn)
460	1	35	COc1cc2ncnc(Nc3ccc(F)c(Cl)c3)c2cc1OCCN(CCO)CCO
150	1.1	2	COc1cc2ncnc(Nc3ccc(F)c(Cl)c3)c2cc1OCCNCCN(C)C
	8.2		COc1cc2ncnc(Nc3ccc(F)c(Cl)c3)c2cc1OCCN1CCCC1
120	52	7	COc1cc2ncnc(Nc3ccc(F)c(Cl)c3)c2cc1OCCN(C)C
	34		COc1cc2ncnc(Nc3ccc(F)c(Cl)c3)c2cc1OCCCN(C)C
380	0.04	8	COc1cc2ncnc(Nc3ccc(F)c(Cl)c3)c2cc1OCC(O)Cn1ccnc1 (stereo not drawn)
